Source: patent publication US20110282056A1, “PROTEIN KINASE INHIBITORS AND USE THEREOF” (priority 2008, published 2011)

Columns and labels:
Type in all cases: biochemical
VEGFR3 = target: T1, VEGFR3 (Homo sapiens, UniProt P35916); experiment: VEGFR3 enzyme activity assay (Caliper LC3000 mobility shift); conditions: 400 uM ATP (Km), 0.4 nM VEGFR3, 90 minutes at RT
T1 construct: purchased Millpore Corp. (Millipore) 14-681
Description: (§1) Enzyme activity for VEGFR3, VEGFR2 and Flt3 were measured on the Caliper Life Sciences LC3000 (Hopkinton, Mass.). The system utilizes the principle of electroosmotic flow to separate and quantify the amount of phosphorylated-Fluorescein-labelled-peptide (product) from unphosphorylated-Fluorescein-labelled peptide (substrate). The amount of product and substrate are determined by measuring the peak heights from the electropherogram. The enzyme activity is then quantified by dividing the amount of product by the sum of the product and substrate. The inhibitory activity of a sample is measured by comparing the enzyme activity in the presence of sample versus the enzyme activity in the presence of dimethylsufoxide (DMSO). Specific assay conditions for each enzyme are listed below:
(§2) VEGFR3 assay: The peptide substrate at 1 uM (FITC-KKKKEEIYFFF-CONH2; synthesized at Tufts University, Boston, Mass.) was incubated with 400 uM of ATP, corresponding to the Michaelis-Menten (Km) constant of the enzyme/substrate reaction, and 0.4 nM of VEGFR3 (Millpore Corp., Cat. No. 14-681) for 90 minutes at RT. After 90 minutes, the reaction was stopped by the addition of 10 mM EDTA. The substrate and product were then separated on the LC3000.

VEGFR2 = target: T2, VEGFR2 (Homo sapiens, UniProt P35968); experiment: VEGFR2 enzyme activity assay (Caliper LC3000 mobility shift); conditions: 160 uM ATP (Km), 1 nM VEGFR2, 90 minutes at RT
T2 construct: purchased BPS Bioscience; San Diego, Calif; 40301
T2 sequence (P35968 20-1356): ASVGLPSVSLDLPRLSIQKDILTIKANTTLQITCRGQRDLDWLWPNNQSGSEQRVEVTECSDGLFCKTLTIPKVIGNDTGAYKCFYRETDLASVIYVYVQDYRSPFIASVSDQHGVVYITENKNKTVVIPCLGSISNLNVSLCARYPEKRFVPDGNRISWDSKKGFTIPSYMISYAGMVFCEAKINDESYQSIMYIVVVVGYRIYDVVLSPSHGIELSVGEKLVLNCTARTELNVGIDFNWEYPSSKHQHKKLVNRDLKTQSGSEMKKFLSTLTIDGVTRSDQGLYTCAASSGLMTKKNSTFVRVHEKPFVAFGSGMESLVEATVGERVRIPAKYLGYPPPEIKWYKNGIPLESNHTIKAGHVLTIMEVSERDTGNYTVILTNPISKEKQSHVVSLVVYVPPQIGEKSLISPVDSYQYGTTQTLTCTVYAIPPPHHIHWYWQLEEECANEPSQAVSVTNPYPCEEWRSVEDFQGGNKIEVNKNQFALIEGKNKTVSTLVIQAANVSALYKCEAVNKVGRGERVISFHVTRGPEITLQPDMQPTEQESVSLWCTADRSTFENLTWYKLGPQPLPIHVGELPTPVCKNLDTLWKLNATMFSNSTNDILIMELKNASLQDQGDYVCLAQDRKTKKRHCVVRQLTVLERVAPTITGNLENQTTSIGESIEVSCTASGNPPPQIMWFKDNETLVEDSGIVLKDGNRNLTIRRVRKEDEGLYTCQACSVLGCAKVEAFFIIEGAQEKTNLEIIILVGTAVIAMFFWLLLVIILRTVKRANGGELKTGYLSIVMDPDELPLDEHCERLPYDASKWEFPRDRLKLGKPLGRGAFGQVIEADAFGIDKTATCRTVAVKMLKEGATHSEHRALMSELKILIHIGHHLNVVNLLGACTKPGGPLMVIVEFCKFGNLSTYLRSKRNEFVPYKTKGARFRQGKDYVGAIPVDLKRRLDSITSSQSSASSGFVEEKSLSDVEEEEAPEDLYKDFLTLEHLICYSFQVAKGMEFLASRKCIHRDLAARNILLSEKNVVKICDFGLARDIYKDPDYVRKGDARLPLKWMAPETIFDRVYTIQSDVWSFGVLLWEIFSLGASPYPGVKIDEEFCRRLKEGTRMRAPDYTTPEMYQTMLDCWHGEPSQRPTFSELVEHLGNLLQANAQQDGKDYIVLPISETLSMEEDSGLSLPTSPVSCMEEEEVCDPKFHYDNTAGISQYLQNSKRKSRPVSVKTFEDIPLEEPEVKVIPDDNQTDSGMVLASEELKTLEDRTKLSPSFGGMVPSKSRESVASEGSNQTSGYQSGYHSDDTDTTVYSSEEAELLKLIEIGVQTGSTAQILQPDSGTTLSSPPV
Description: as §1
as §2, with “VEGFR2” for “VEGFR3”, “(5-FL-EEPLYWSFPAKKK-CONH2;” for “(FITC-KKKKEEIYFFF-CONH2;”, “160” for “400”, “1” for “0.4”, “VEGFR2 (BPS Bioscience; San Diego, Calif.;” for “VEGFR3 (Millpore Corp.,”, “40301)” for “14-681)”

Flt3 = target: T3, Flt3 (Homo sapiens, UniProt P36888); experiment: Flt3 enzyme activity assay (Caliper LC3000 mobility shift); conditions: 350 uM ATP (Km), 3 nM Flt3, 90 minutes at RT
T3 construct: purchased BPS Bioscience; San Diego, Calif; 40225
T3 sequence (P36888 27-993): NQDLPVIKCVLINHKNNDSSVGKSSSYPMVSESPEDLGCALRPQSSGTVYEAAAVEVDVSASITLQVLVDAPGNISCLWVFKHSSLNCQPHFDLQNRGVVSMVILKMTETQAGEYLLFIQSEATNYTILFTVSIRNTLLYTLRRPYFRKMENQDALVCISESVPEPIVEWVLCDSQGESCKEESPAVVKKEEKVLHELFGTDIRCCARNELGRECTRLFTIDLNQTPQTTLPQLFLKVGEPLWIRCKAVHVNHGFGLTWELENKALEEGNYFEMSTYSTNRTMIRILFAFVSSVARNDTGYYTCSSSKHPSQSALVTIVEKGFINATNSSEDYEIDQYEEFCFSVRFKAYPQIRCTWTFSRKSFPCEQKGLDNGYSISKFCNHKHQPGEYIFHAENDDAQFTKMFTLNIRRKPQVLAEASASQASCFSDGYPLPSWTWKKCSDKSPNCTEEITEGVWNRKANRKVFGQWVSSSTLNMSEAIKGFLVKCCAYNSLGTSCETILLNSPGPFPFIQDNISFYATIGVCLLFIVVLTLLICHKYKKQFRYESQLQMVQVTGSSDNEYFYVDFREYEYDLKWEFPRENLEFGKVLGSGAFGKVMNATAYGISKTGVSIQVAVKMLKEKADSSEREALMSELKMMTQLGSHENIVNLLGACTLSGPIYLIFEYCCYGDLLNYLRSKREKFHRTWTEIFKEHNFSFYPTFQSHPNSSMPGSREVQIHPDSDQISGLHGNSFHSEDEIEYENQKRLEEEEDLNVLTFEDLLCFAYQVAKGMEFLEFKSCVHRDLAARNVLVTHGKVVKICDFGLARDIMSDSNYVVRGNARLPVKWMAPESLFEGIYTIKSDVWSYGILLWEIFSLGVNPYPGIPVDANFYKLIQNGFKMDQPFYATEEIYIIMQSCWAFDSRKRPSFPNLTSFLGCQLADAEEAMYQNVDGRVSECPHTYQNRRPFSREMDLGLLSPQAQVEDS
Description: as §1
as §2, with “Flt3” for “VEGFR3”, “(FITC-AHA-UEAIYAAPFAKKK-CONH2;” for “(FITC-KKKKEEIYFFF-CONH2;”, “350” for “400”, “3” for “0.4”, “Flt3 (BPS Bioscience; San Diego, Calif.;” for “VEGFR3 (Millpore Corp.,”, “40225)” for “14-681)”

Measured: IC50

T1 sequence (P35916 25-1363): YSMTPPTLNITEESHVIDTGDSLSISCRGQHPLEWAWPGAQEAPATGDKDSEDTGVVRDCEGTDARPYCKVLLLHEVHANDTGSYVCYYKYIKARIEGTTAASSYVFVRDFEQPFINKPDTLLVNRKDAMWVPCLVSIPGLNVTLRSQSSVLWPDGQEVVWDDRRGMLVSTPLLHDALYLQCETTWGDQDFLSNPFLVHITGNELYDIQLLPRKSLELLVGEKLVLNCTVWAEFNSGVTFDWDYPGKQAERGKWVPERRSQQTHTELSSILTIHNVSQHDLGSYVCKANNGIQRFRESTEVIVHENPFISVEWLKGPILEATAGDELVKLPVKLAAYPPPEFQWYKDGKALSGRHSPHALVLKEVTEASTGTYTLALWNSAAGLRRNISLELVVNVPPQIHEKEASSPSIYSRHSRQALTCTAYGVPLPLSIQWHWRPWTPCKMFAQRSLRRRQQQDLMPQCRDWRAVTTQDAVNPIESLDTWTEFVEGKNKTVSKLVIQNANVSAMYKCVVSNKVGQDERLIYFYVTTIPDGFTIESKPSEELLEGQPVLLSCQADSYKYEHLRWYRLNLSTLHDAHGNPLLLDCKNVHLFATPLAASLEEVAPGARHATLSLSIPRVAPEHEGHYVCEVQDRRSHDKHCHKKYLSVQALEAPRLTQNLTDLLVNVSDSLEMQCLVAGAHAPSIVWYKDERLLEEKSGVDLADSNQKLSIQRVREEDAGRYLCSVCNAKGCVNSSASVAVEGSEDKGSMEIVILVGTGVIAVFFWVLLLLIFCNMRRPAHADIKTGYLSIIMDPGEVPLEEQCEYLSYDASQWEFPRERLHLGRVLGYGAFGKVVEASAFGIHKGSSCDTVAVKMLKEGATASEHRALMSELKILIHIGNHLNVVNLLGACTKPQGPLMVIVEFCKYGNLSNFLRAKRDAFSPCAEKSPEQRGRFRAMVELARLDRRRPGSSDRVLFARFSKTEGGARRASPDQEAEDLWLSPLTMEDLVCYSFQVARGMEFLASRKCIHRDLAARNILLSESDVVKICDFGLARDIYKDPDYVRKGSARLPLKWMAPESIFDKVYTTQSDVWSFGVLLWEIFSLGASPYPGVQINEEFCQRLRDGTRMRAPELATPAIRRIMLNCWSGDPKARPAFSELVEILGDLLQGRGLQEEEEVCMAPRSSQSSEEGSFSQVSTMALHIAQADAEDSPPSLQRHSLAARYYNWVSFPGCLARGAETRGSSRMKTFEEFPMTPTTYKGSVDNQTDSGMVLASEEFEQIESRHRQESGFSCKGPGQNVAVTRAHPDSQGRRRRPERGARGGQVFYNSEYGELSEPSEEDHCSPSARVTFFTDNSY

COc1ccc(C#Cc2ccnc3[nH]ccc23)cc1 [compound 89]
> 1000 nM: all assays above

N#Cc1cncc(C#Cc2ccnc3[nH]ccc23)c1 [compound 91]
> 1000 nM: all assays above

C(#Cc1ccnc2[nH]ccc12)c1cccc(-n2cccc2)c1 [compound 92]
> 1000 nM: all assays above

C(#Cc1ccnc2[nH]ccc12)c1ncccn1 [compound 93]
> 1000 nM: all assays above

Cc1cc(C#Cc2ccnc3[nH]ccc23)ccc1C#N [compound 94]
> 1000 nM: all assays above

C#Cc1ccc(C#Cc2ccnc3[nH]ccc23)cc1 [compound 95]
> 1000 nM: all assays above

C#Cc1ccnc2[nH]ccc12 [compound 96]
> 1000 nM: all assays above

C(#Cc1ncnc2sc3c(c12)CCCC3)c1ccccc1 [compound 97]
> 1000 nM: all assays above

C(#Cc1ccnc2[nH]ccc12)c1cccc(-c2ccccc2)c1 [compound 98]
> 1000 nM: all assays above

Nc1cccc(C#Cc2ccnc3[nH]ccc23)c1 [compound 99]
> 1000 nM: all assays above

N#Cc1ccc(C#Cc2ccnc3[nH]ccc23)cc1 [compound 100]
> 1000 nM: all assays above

C(#Cc1ccnc2[nH]ccc12)c1ccccc1-c1cccs1 [compound 101]
> 1000 nM: all assays above

CC(C)Oc1cccc(C#Cc2ccnc3[nH]ccc23)c1 [compound 102]
> 1000 nM: all assays above

C(#Cc1ccnc2[nH]ccc12)c1cccc(Nc2ccccc2)c1 [compound 104]
> 1000 nM: all assays above

FC(F)(F)c1ccccc1C#Cc1cnc2[nH]ccc2c1 [compound 105]
> 1000 nM: all assays above

COC(=O)c1cccc(C#Cc2ccnc3[nH]ccc23)n1 [compound 106]
> 1000 nM: all assays above

FC(F)Oc1ccc(C#Cc2ccnc3[nH]ccc23)cc1 [compound 107]
> 1000 nM: all assays above

C(#Cc1cnc2[nH]ccc2c1)c1ccccc1 [compound 108]
> 1000 nM: all assays above

C[Si](C)(C)C#Cc1ncnc2[nH]ccc12 [compound 109]
> 1000 nM: all assays above

N#Cc1ccc(C#Cc2ccnc3[nH]ccc23)cn1 [compound 110]
> 1000 nM: all assays above

C#Cc1ncnc2[nH]ccc12 [compound 111]
> 1000 nM: all assays above

C[Si](C)(C)C#Cc1ncnc2sc3c(c12)CCCC3 [compound 112]
> 1000 nM: all assays above

O=C(NCc1ccccc1C#Cc1ccnc2[nH]ccc12)Nc1ccccc1 [compound 113]
> 1000 nM: all assays above

Cc1nc(-c2ccc(C#Cc3ccnc4[nH]ccc34)cc2)no1 [compound 114]
> 1000 nM: all assays above

CC(=O)c1ccc(C#Cc2ccnc3[nH]ccc23)nc1 [compound 115]
> 1000 nM: all assays above

FC(F)(F)c1cccc(C#Cc2ccnc3[nH]ccc23)c1 [compound 116]
> 1000 nM: all assays above

Cc1cccc(C)c1C#Cc1ccnc2[nH]ccc12 [compound 117]
> 1000 nM: all assays above

NCc1ccccc1C#Cc1ccnc2[nH]ccc12 [compound 118]
> 1000 nM: all assays above

C(#Cc1ccnc2[nH]ccc12)c1ccc(-c2cnco2)cc1 [compound 119]
> 1000 nM: all assays above

FC(F)(F)Oc1ccc(C#Cc2ccnc3[nH]ccc23)cc1 [compound 120]
> 1000 nM: all assays above

O=C(Cc1ccccc1C#Cc1ccnc2[nH]ccc12)N1CCC(F)(F)CC1 [compound 121]
> 1000 nM: all assays above

COC(=O)c1ccc(C#Cc2ccnc3[nH]ccc23)cc1OC [compound 122]
> 1000 nM: all assays above

FC(F)(F)Oc1cccc(C#Cc2ccnc3[nH]ccc23)c1 [compound 123]
> 1000 nM: all assays above

CN(C)c1ccc(C#Cc2ccnc3[nH]ccc23)cc1 [compound 124]
> 1000 nM: all assays above

CN(C)c1ccc(C#Cc2ncnc3sc4c(c23)CCCC4)cc1 [compound 125]
> 1000 nM: all assays above

C(#Cc1ccnc2[nH]ccc12)c1ccc(-c2cccs2)cc1 [compound 126]
> 1000 nM: all assays above

C(#Cc1ccnc2[nH]ccc12)c1ccccc1-c1ccccc1 [compound 127]
> 1000 nM: all assays above

C(#Cc1ccnc2[nH]ccc12)c1ccc(N2CCOCC2)cc1 [compound 128]
> 1000 nM: all assays above

Nc1cc(C#Cc2ccccc2CNC(=O)C(F)(F)F)ccn1 [compound 129]
> 1000 nM: all assays above

COC(=O)c1ccc(C#Cc2ccnc3[nH]ccc23)cc1 [compound 130]
> 1000 nM: all assays above

C(#Cc1ccnc2[nH]ccc12)c1ccc(-c2nnc(-c3ccccc3)o2)cc1 [compound 131]
> 1000 nM: all assays above

COc1ccc(C#Cc2ccnc(NC(=O)OC(C)(C)C)c2)cc1 [compound 132]
> 1000 nM: all assays above

C(#Cc1ccnc2[nH]ccc12)c1ccc(-c2ccccc2)cc1 [compound 133]
> 1000 nM: all assays above

O=C(c1ccc(C#Cc2ccnc3[nH]ccc23)cc1)C1CC1 [compound 134]
> 1000 nM: all assays above

FC(F)(F)c1ccc(C#Cc2ccnc3[nH]ccc23)cc1 [compound 135]
> 1000 nM: all assays above
